Literature values in patent publication US7772228B2, “Method for treatment of bacterial infections with once or twice-weekly administered rifalazil” (priority 1998, dated 2010).

System: M. tuberculosis
Conditions: depending on the degree of resistance to rifampin; cited from earlier work

CO[C@H]1/C=C/O[C@@]2(C)Oc3c(C)c(O)c4c(O)c(c(/C=N/N5CCN(C)CC5)c(O)c4c3C2=O)NC(=O)/C(C)=C\C=C\[C@H](C)[C@H](O)[C@@H](C)[C@@H](O)[C@@H](C)[C@H](OC(C)=O)[C@@H]1C [Rifampin, rifampin, reference compound]
MICs for MTB, range: <0.002 to 4.0 µg/mL
